Among the data in patent US20220267350A1, “ADENOSINE RECEPTOR ANTAGONIST” (XIAMEN BIOTIME BIOTECHNOLOGY CO., LTD., priority 2019, published 2022) are IC50 values, retold here.

Assay [1] addresses A2A receptor (Homo sapiens, UniProt P29274). The assay is described as follows: A2A receptor antagonist functional assay (cAMP, NECA at EC80). The format is cell-based. To be noted: A2A cell line (PerkinElmer ES-011-C); 5'-N-ethylcarboxamidoadenosine at EC80; cAMP readout; read-out: A2A Antagonistic function IC50. The procedure: (§1) The A2A cell line was derived from PerkinElmer (Product ID: ES-011-C); the A2B cell line was derived from PerkinElmer (Product ID: ES-013-C). The experimental procedure was referred to ACS Medicinal Chemistry Letters (2011) 2, 213-218; the specific test was completed by Pharmaron Beijing Co., Ltd. with the following steps: 10 nL of compound stock in DMSO (10 mM) followed by 10 μL of A2A or A2B cell suspension (30000 cells/mL) were transferred to assay wells of a 384-well plate at room temperature and incubated for 20 minutes at room temperature. The corresponding amount of 5′-N-ethylcarboxamidoadenosine at EC80 activation concentration was transferred to each test well, and incubated for another 30 minutes at 37° C., 5% CO2, 95% humidity, then Eu-cAMP tracer working solution and Ulight-anti-cAMP working solution were added to the cell culture plate at 5 uL/well in sequence, and the cell plate fluorescence was read with Envision (excitation wavelength: 320 nm, emission wavelength: 665 nm and 615 nm). The corresponding inhibition rate in each well was obtained according to the following formula, and a sigmoidal dose-inhibition rate curve was plotted using a non-linear regression model to calculate the IC50 value.

In assay [2] the target is T1, A2B receptor (Homo sapiens, UniProt P29275).
T1 sequence (P29275 1-332): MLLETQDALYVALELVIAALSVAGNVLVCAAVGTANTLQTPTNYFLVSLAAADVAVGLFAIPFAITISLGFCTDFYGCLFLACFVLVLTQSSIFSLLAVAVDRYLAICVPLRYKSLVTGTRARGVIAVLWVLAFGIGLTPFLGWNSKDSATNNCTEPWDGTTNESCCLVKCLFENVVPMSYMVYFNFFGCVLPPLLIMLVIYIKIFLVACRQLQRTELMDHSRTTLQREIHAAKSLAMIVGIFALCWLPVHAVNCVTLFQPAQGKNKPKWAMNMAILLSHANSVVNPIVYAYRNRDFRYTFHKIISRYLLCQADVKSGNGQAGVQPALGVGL
Kind of assay: A2B receptor antagonist functional assay (cAMP, NECA at EC80). The format is cell-based. To be noted: A2B cell line (PerkinElmer ES-013-C); 5'-N-ethylcarboxamidoadenosine at EC80; cAMP readout; read-out: A2B Antagonistic function IC50. Here is the method: as §1

Chain of A2A receptor (P29274 whole entry): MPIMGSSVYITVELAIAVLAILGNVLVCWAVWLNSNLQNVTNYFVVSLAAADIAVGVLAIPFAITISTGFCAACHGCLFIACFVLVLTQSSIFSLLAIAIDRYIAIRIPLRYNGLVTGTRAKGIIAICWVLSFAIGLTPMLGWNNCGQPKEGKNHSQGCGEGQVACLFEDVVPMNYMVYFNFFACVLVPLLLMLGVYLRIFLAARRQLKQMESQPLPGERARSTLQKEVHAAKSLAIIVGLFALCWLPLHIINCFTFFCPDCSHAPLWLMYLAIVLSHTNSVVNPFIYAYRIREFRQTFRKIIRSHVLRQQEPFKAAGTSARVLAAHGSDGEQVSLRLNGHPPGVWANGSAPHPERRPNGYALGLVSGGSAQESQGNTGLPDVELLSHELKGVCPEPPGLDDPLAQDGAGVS

In general, IC50 refers to the concentration that gives 50% inhibition. Regarding `Cc1ccc(-c2nc(N)nc3c(Cc4ccccc4O)noc23)o1` [Compound 9], the IC50 in assay [1] was found to be 10.2 nM. Same read-out and setting: with `Cc1ccc(-c2nc(N)nc3c(Cc4ccc(Cl)cc4)noc23)o1` [Compound 5] the figure was 31.8 nM. For `Cc1ccc(-c2nc(N)nc3c(Cc4ccc(F)cc4)noc23)o1` [Compound 2], the IC50 in assay [1] came out at 7 nM. Regarding `COc1ccccc1Cc1noc2c(-c3ccc(C)o3)nc(N)nc12` [Compound 4], the IC50 in assay [1] worked out at 6.9 nM. Regarding `COc1cccc(Cc2noc3c(-c4ccc(C)o4)nc(N)nc23)c1` [Compound 1], the IC50 in assay [1] stood at 3.8 nM; in assay [2] it was 149 nM. For the molecule `COc1ccc(Cc2noc3c(-c4ccc(C)o4)nc(N)nc23)cc1` [Compound 3], the IC50 in assay [1] worked out at 120 nM. The same measure, in the same setting: the value for `Cc1ccc(-c2nc(N)nc3c(Cc4cccc(Cl)c4)noc23)o1` [Compound 6] was 3.7 nM.

For the molecule `Cc1ccc(-c2nc(N)nc3c(Cc4cccc(O)c4)noc23)o1` [Compound 7], the IC50 in assay [1] and in assay [2] was 11 nM in each case. Consider `Cc1ccc(-c2nc(N)nc3c(Cc4ccc(O)cc4)noc23)o1` [Compound 8], for which, in assay [1], the IC50 was found to be 80 nM.
